These compounds were tested against T1, TRF1 (Mus musculus, UniProt P70371) (assay: Measurement of TRF1 levels at telomere by immunofluorescence). Conditions: CHA9.3 cells (primary murine lung cancer cell line), compound at 10 µM, 24 hours, duplicates.
T1 construct: endogenous in cells; host or cells: CHA9.3 primary murine lung cancer cell line
T1 sequence (P70371 1-421): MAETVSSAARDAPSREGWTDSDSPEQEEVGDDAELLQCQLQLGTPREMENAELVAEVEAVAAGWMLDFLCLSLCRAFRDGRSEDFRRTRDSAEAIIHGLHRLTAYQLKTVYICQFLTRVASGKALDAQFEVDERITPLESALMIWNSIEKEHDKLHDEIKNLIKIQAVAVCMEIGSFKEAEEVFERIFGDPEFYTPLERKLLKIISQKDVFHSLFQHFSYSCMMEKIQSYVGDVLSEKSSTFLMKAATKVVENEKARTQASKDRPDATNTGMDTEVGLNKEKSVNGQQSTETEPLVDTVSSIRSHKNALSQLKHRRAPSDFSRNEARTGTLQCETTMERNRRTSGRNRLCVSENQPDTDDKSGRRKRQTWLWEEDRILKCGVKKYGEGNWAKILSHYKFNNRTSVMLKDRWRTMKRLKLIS
Assay type: cell-based
Description: Assay was performed in CHA9.3, a primary murine cell line derived from a lung cancer. (Garcia-Beccaria et al., 2015). Cells were grown in DMEM (Gibco) supplemented with 10% FBS (fetal bovine serum), 1% penicillin/estreptomicen (Someglas 100U/ml) and 0.5% Amphotericin B (Gibco). Cells were incubated at 37 °C with 5% CO2. Cells were trypsinized with Trypsin-EDTA (Sigma) and washed with PBS (BioWhittaker) before counting and plating.
Cells were seeded in 10000 cells per 150 µl per well into black 96-well plates (Falcon) and incubated for 16 h at 37°C, 5% CO2. On day two, duplicates of each compound at 10 µM in DMSO were tested. The compounds were added to duplicate wells in 96-well cell plates using a FX BECKMAN robot (BeckmanCoulter) and were incubated at 37°C under CO2 atmosphere. After 24 hours, relative levels of TRF1 at telomeres were quantified by immunofluorescence. A rat monoclonal antibody against mouse TRF1 developed by the Monoclonal antibody unit at CNIO was used to detect endogenous TRF1.
First cells were fixed with 4 % formaldehyde (Sigma) in PBS (Alaos) during 13 minutes at room temperature (RT). After removal of the medium, cells were washed twice with PBS 10 minutes. Cells were permeabilized with a solution 0.2%Triton X-100 (Sigma) in PBS during 10 minutes at RT. After two more washes with PBS, cells were incubated with a solution 0.1%NaCitrate (Fluka) /0.1 %Triton X100 during 5 minutes at RT. After, two more washes with PBS cells were blocked with a solution 3% BSA (Sigma) in PBS-T, PBS with 0.05% Tween20 (Sigma), during 3 o 4 hours. Then, cells were incubated o/n at 4 °C with a dilution 1:750 of anti TRF1 antibody. After two washes of 10 minutes with PBS-T, cells were incubated with secondary antibody anti-rat 555 (Alexa Fluor) (1 :500) during 1 hour at RT: Then, 3 washes with PBS-T (0.05%) of 10 minutes and a last wash with PBS1X were performed. Nuclear staining was performed with Hoechst (Invitrogen) at de […] in PBS1X during10 minutes.
For quantification of TRF1 foci intensity, pictures of fixed cells were automatically acquired from each well by the Opera High Content Screening (HCS) system (Perkin Elmer). Forty images of random fields per well, with a 40xmagnification lens, were taken under non-saturating conditions. At least 1 × 10^3 cells were analyzed for each well. Briefly, images were segmented using the DAPI staining to generate masks matching cell nuclei from which-TRF1 foci were analyzed. Automatic analysis was performed with Acapela v2.0 software. Quantification of the inhibition of TRF1 levels at telomeres was performed with Pipeline platform.

| SMILES | inhibition at 10 µM |
| --- | --- |
| C#CCOc1cccc(-c2sc(Nc3ncccn3)nc2C(N)Cc2ccccc2)c1 (racemic) [Compound 87] | 17.5% |
| NC(Cc1ccc(O)cc1)c1csc(Nc2ncccn2)n1 (centres unmarked) [Compound 120] | 20% |
| NC(Cc1ccccc1Br)c1csc(Nc2ncccn2)n1 (single isomer, unassigned) [Compound 3] | 25.4% |
| C#CCOc1cccc(CC(N)c2csc(Nc3ncccn3)n2)c1 (single isomer, unassigned) [Compound 18] | 33.8% |
| COCCOc1cccc(-c2sc(Nc3ncccn3)nc2[C@@H](N)Cc2ccccc2)c1 [Compound 84] | 16.3% |
| C#CCOc1cccc(-c2sc(Nc3ncccn3)nc2[C@H](N)Cc2ccccc2)c1 [Compound 123] | 10.9% |
| C#CCCC(=O)Nc1cnc(Nc2nc(C(N)Cc3ccc(F)cc3)cs2)nc1 (centres unmarked) [Compound 74] | 15.5% |
| NC(Cc1cccc(Cl)c1)c1csc(Nc2ncccn2)n1 (racemic) [Compound 12] | 27.9% |
| C#CCOc1cccc(-c2sc(Nc3ncccn3)nc2[C@@H](N)Cc2ccccc2)c1 [Compound 122] | 5.33% |
| C#Cc1ccc(CC(N)c2csc(Nc3ncccn3)n2)cc1 (racemic) [Compound 66] | 18.1% |
| N[C@@H](Cc1ccccc1)c1csc(Nc2ccccn2)n1 [Compound 35] | 20.5% |
| C#Cc1cnc(Nc2nc(C(N)Cc3ccccc3)cs2)nc1 (racemic) [Compound 62] | 11.4% |
| NC(Cc1cccc(Br)c1)c1csc(Nc2ncccn2)n1 (single isomer, unassigned) [Compound 6] | 28.3% |
| NC(Cc1ccc(Br)cc1)c1csc(Nc2ncccn2)n1 (racemic) [Compound 8] | 32.4% |
| N[C@@H](Cc1ccccc1)c1nc(Nc2ncccn2)sc1Br [Compound 88] | 29.9% |
| C#Cc1cccc(-c2sc(Nc3ncccn3)nc2C(N)Cc2ccccc2)c1 (centres unmarked) [Compound 81] | 19.7% |
| C#Cc1ccc(C[C@@H](N)c2csc(Nc3ncccn3)n2)cc1 [Compound 68] | 31.2% |
| C#CCCCCOc1ccc(CC(N)c2csc(Nc3ncccn3)n2)cc1 (racemic) [Compound 26] | 0% |
| C#Cc1cccc(CC(N)c2csc(Nc3ncccn3)n2)c1 (racemic) [Compound 58] | 27.1% |
| CC(=O)Nc1cccc(-c2sc(Nc3ncccn3)nc2C(N)Cc2ccccc2)c1 (centres unmarked) [Compound 83] | 17.2% |

| SMILES | inhibition at 10 µM |
| --- | --- |
| COc1cc(C)nc(Nc2nc([C@@H](N)Cc3ccccc3)cs2)n1 [Compound 37] | 9.77% |
| C#Cc1ccc(C[C@H](N)c2csc(Nc3ncccn3)n2)cc1 [Compound 69] | 7.7% |
| C#CCOc1cccc(C[C@H](N)c2csc(Nc3ncccn3)n2)c1 [Compound 19] | 27.5% |
| NC(Cc1cccc(Br)c1)c1csc(Nc2ncccn2)n1 (racemic) [Compound 5] | 29.8% |
| NC(Cc1cccc(O)c1)c1csc(Nc2ncccn2)n1 (centres unmarked) [Compound 105] | 29.5% |
| Cc1cnc(Nc2nc([C@@H](N)Cc3ccccc3)cs2)nc1 [Compound 36] | 18.4% |
| Nc1cccc(-c2sc(Nc3ncccn3)nc2C(N)Cc2ccccc2Br)c1 (centres unmarked) [Compound 78] | 27.8% |
| C#Cc1cnc(Nc2nc([C@H](N)Cc3ccccc3)cs2)nc1 [Compound 63] | 11.7% |
| N[C@@H](Cc1ccccc1)c1csc(Nc2ncc(Br)cn2)n1 [Compound 34] | 21% |
| NC(Cc1ccccc1)c1csc(Nc2ncccn2)n1 (racemic) [Compound 1] | 27.3% |
| NC(Cc1ccccc1Br)c1csc(Nc2ncccn2)n1 (racemic) [Compound 2] | 29.8% |
| C#Cc1cnc(Nc2nc([C@@H](N)Cc3ccccc3)cs2)nc1 [Compound 64] | 6.41% |
| Nc1ccc(CC(N)c2csc(Nc3ncccn3)n2)cc1 (centres unmarked) [Compound 52] | 10.5% |
| C#Cc1cccc(C[C@@H](N)c2csc(Nc3ncccn3)n2)c1 [Compound 60] | 24.8% |
| C#CCOc1ccc(CC(N)c2csc(Nc3ncccn3)n2)cc1 (racemic) [Compound 20] | 19.4% |
| N[C@@H](Cc1ccccc1)c1nc(Nc2ncccn2)sc1-c1cccc(O)c1 [Compound 89] | 23% |
| Cc1ccnc(Nc2nc([C@@H](N)Cc3ccccc3)cs2)n1 [Compound 33] | 30% |
| NC(Cc1ccc([N+](=O)[O-])cc1)c1csc(Nc2ncccn2)n1 (racemic) [Compound 14] | 0% |
| C#Cc1cccc(C[C@H](N)c2csc(Nc3ncccn3)n2)c1 [Compound 61] | 30.5% |
| C#CCOc1cccc(CC(N)c2csc(Nc3ncccn3)n2)c1 (racemic) [Compound 17] | 31.6% |

Same assay, conditions: CHA9.3 cells (primary murine lung cancer cell line), compound at 10 µM, 24 hours, duplicates; 10 µM

| SMILES | % inhibition of TRF1 levels |
| --- | --- |
| NC(Cc1ccccc1Br)c1csc(Nc2ncccn2)n1 (single isomer, unassigned) [Compound 4] | 24.91% |
| NC(Cc1cccc(Br)c1)c1csc(Nc2ncccn2)n1 (single isomer, unassigned) [Compound 7] | 28.55% |

Same assay, conditions: qualitative SAR statement in the description

| SMILES | TRF1 inhibition activity (active / inactive, in words) |
| --- | --- |
| C#CCOc1cccc(CC(N)c2csc(Nc3ncccn3)n2)c1 (single isomer, unassigned) [Compound 18] | active |
| COc1cc(C)nc(Nc2nc([C@@H](N)Cc3ccccc3)cs2)n1 [Compound 37] | active |
| C#CCOc1cccc(C[C@H](N)c2csc(Nc3ncccn3)n2)c1 [Compound 19] | active |
| C#CCOc1ccc(CC(N)c2csc(Nc3ncccn3)n2)cc1 (racemic) [Compound 20] | active |
| C#CCOc1cccc(CC(N)c2csc(Nc3ncccn3)n2)c1 (racemic) [Compound 17] | active |

— EP3623370A1, “NOVEL TRF1 MODULATORS AND ANALOGUES THEREOF” (Fundación del Sector Público Estatal Centro Nacional de …, priority 2018, dated 2020)
